Test results: patent publication US8247383B2, “Drug-carrier complexes and methods of use thereof” (The General Hospital Corporation, priority 1999, dated 2012)
Where two headings read alike, the source gives them in different places. d = 2'-deoxy (DNA); r = 2'-OH (RNA)

Experiments:
[1] = format: physicochemical
Procedure: An oligonucleotide with arbitrarily chosen […] sequence, 5′CGTCGACGTCGAATATACGC (SEQ ID NO: 3), and a complementary 5′-amino modified oligonucleotide 5′GC GTA TAT TCG ACG TCG ACG (SEQ ID NO: 4) were purchased from a commercial vendor. To form a double stranded oligonucleotide, the single-stranded oligonucleotides were hybridized and lyophilized as described in Example 1. The resultant double stranded oligonucleotide was stable at ambient (25° C.) and body temperature (37° C.).

[2] = Carrier biokinetics (3H-labeled carriers, blood); format: in vivo; settings: 1 mg/kg via tail vein, mice
Procedure: Unloaded carriers (Example 8) were labeled with tritium (^3H). Carriers were oxidized with periodate to produce aldehyde groups on the 3′-ribonucleotide base present in the structure, and reacted with [^3H] borohydride to introduce tritium into carrier core structure. Carriers were purified on Sephadex G-25 and injected at 1 mg/kg into normal outbred mice (males, 30 g) via tail vein. Blood samples were collected at different time points and counted. The blood half-lives were ca. 30 min and 10 hours for unprotected and PHF-protected carriers, respectively.

[3] = system: antifluorescein rabbit IgG; assay: Steric protection: kinetics of fluorescein quenching by anti-fluorescein IgG; format: binding; settings: polymer chains positioned within 2 and 9 bases of fluorescein; 10-fold anti-fluorescein IgG, 20 mM PBS, pH=7.5
Procedure: To determine the degree of steric protection of the nucleotide core by polymer chains, a series of double-stranded oligonucleotides were synthesized. A model antigen (fluorescein) and a model protective chain (polyethyleneglycol) were positioned on the oligonucleotide at various distances. Then kinetics of fluorescein moiety interactions with fluorescence-quenching antifluorescein rabbit IgG (Molecular Probes, Oreg.) was determined to evaluate the degree of steric protection. The latter was investigated as a function of the distance between the antigen and the protective chain. Four 5′-amino modified oligonucleotides with the same sequence 5′-TTT-CTC-TCT-CTC-TCT-CTC-TCT-3′ (SEQ ID NO: 5) were obtained from a commercial source. […]
The resultant double-stranded oligonucleotides were purified by SEC HPLC and modified, through the 5′-aminogroup of the first strand, with N-hydroxysuccinimide ester of carboxy-polyethyleneglycol (MW=2 kDa and 20 kDa), and with N-hydroxysuccinimide ester of branched “PEG2” polyethyleneglycol (10 kDa). […] Fluorescein—antibody interaction was registered by quenching of the fluorescein fluorescence by the antibody. Fluorescence was registered at 515 nm (excitation at 490 nm). The kinetics of fluorescence quenching depended on the position of the fluorescein moiety relative to the polymer chain.

[4] = design: species or system mice; settings: mouse, in vivo, iv
Procedure: An arbitrarily chosen 5-amino modified 18-base phosphodiester oligonucleotide 5° […] (SEQ ID NO: 11), 0.11 mg, was modified with trace amount of ethylenediaminetraacetic anhydride and hybridized with (a) a complementary oligonucleotide, 5′[…] (SEQ ID NO: 12), and (b) analogous complementary oligonucleotide amino modified at both 5′ and 3′ ends and at positions 4, 9 and 15 (from 5′). The hybridized amino modified DSO was incubated with 1 ml of 10 mg/ml solution of N-hydroxycuccinimido-polyethyleneglycol, MW=10 kDa, at pH=8 for 8 hours. The products, PEG-modified double stranded oligonucleotides, were isolated by HPLC. Both PEG-modified and unmodified double stranded oligonucleotides were labeled with 111 in 0.5 M citrate buffer solution, pH=5.6. Labeled preparations were purified by SEC HPLC. Each was divided into 4 equal doses and administered intravenously to outbred mice (n=4 in each group, male, 31±2 g). Blood samples were taken immediately after injection, then at 0.25, 0.5, 1, 2, 4 and 8 hours.

outbred mice [5] = assay: Carrier toxicity in vivo; settings: 100 mg/kg intravenously, observed for 30 days
Source text: Carrier toxicity in vivo.

outbred mice [6] = assay: Adduct toxicity in vivo; settings: observed for 30 days
Procedure: Adduct toxicity in vivo. […] Bis-intercalator content was one molecule per 6 base pairs of the nucleotide core. […] The adduct and free bis-intercalator were administered intravenously, as described above, into male outbred mice (30±2 g, n=4 per group) at 30 mg/kg by bis-intercalator. In a third group, unloaded carrier was injected at 100 mg/kg within 15 minutes after the administration of 30 mg/kg of bis-doxorubicin.

[7] = cited from earlier work
[8] = Lyophilization and reconstitution in PBS with membrane filtration; format: physicochemical; settings: one milligram by doxorubicin in 0.1 ml of 50 mM PBS, pH=7
Procedure: The adducts obtained as described in Examples 2 and 3 were used in a lyophilized form. Doxorubicin powder (Sigma Chemical Co., St. Louis, Mo.) and lyophilized “Doxorubicin for injection” were used as control preparations. Each of the four preparations, in the amount of one milligram by doxorubicin, were suspended in 0.1 ml of a 50 mM PBS, pH=7. […] The resultant solutions oligonucleotide-doxorubicin adduct solutions were filtered through […] PTFE membrane filters; doxorubicin was recovered in the filtrates with at least 98% yield (by adsorption at 470 nm).

[9] = Doxorubicin biodistribution (14C tissue radioactivity); format: in vivo, mice; settings: 0.3 mg/kg via tail vein, 20 hours after injection
Procedure: (^14C)doxorubicin-loaded carriers (Example 12) and free (^14C)doxorubicin (control) were injected into normal outbred mice (males, 30 g) via tail vein, at 0.3 mg/kg. Biodistribution was studied by measuring tissue radioactivity 20 hours after injection. Tissue samples were disintegrated, solubilized, mixed with a scintillation cocktail and counted on a scintillation counter.

[10] = system: human epithelial cells (kidney, line 293); assay: Carrier and adduct toxicity in cell culture (Trypan Blue staining); format: cell-based; settings: control experiment, confluent and growing cultures
Procedure: Carrier toxicity in cell culture. Unloaded carriers (Example 7) were tested in near confluent culture of human epithelial cells (kidney, line 293, from ATCC #CRL 1573) in DMEM with 5% calf serum. Carriers were added to the cell culture at various concentrations, from 1 mg/ml to 1 mg/ml. Cell survival rate was determined by staining with Trypan Blue after a 16-hour incubation.
Adduct toxicity in cell culture. Doxorubicin-loaded carriers (Example 12) were tested in near confluent and growing cultures of human epithelial cells (kidney, line 293) in DMEM containing 5% calf serum. […] Cell survival rate was determined by staining with Trypan Blue after a 16-hour incubation.

double stranded oligonucleotide: hybrid of 5′CGTCGACGTCGAATATACGC (SEQ ID NO: 3) and complementary 5′-amino modified SEQ ID NO: 4 (chain 1 CGTCGACGTCGAATATACGC; chain 2 GCGTATATTCGACGTCGACG; complementary strand carries 5'-amino modification, further chemistry not given here)
stability of double stranded oligonucleotide [1]: stable

unprotected carriers: double-stranded carrier from unmodified oligonucleotides SEQ ID NO: 7 and 8 (chain 1 ATGGCGCACGCTGGGAGA; chain 2 TCTCCCAGCGTGCGCCATC; chain 1: DNA, backbone and methylation of C not given here; chain 2: sugars from the 5' end d18 r1, all phosphodiester, methylation of C not given here)
blood half-life [2]: ca. 30 min

2 kDa polymer: fluorescein-labeled double-stranded oligonucleotide (SEQ ID NO: 5/6) modified at 5′-amino group with 2 kDa polyethyleneglycol (chain 1 TTTCTCTCTCTCTCTCTCTCT; chain 2 AGAGAGAGAGAGAGAGAGAAAA; fluorescein, 2 kDa PEG, chemistry not fully specified)
decrease of the kinetic constant of fluorescein-antibody interaction [3]: 20%

unmodified double stranded oligonucleotides: labeled SEQ ID NO: 11 hybridized with complementary SEQ ID NO: 12 (chain 1 CGTCGACGTCGAATATACGC; chain 2 GCGTATATTCGACGTCGACG; DNA, phosphodiester; one strand carries an unspecified label)
blood half-life [4]: 0.2 ± 0.083 h

PHF-protected carriers: amino modified double-stranded oligonucleotide (SEQ ID NO: 9/8) conjugated with 10 kDa PHF (chain 1 ATGGCGCACGCTGGGAGAC; chain 2 TCTCCCAGCGTGCGCCATC; sugars from the 5' end d18 r1, backbone and methylation of C not given here; amino modifications at positions 1, 2, 12, 19 of first strand, PHF polymer conjugated)
blood half-life [2]: ~10 h
signs of toxicity (outbred mice [5]): None of the animals showed signs of toxicity
survival (outbred mice [5]; n=6): All animals survived

20 kDa polymer: fluorescein-labeled double-stranded oligonucleotide (SEQ ID NO: 5/6) modified at 5′-amino group with 20 kDa polyethyleneglycol (chain 1 TTTCTCTCTCTCTCTCTCTCT; chain 2 AGAGAGAGAGAGAGAGAGAAAA; 5'-amino linked 20 kDa PEG, fluorescein on an internal base, further chemistry not given here)
decrease of the kinetic constant of fluorescein-antibody interaction [3]: 80%

COc1cccc2c1C(=O)c1c(O)c3c(c(O)c1C2=O)C[C@@](O)(C(C)=O)C[C@@H]3O[C@H]1C[C@H](NCc2ccc(CN[C@H]3C[C@H](O[C@H]4C[C@](O)(C(C)=O)Cc5c(O)c6c(c(O)c54)C(=O)c4c(OC)cccc4C6=O)O[C@@H](C)[C@H]3O)cc2)[C@H](O)[C@H](C)O1 [WP-631]
survival (outbred mice [6]; 30 mg/kg bis-doxorubicin, then unloaded carrier 100 mg/kg within 15 minutes): all animals survived
survival (outbred mice [6]; 30 mg/kg by bis-intercalator intravenously, n=4 per group): only one animal survived
solubility at physiological pH [7]: limited solubility

C[C@H](CNCCNC[C@@H](C)N1C(=O)c2cccc3cc([N+](=O)[O-])cc(c23)C1=O)N1C(=O)c2cccc3cc([N+](=O)[O-])cc(c23)C1=O [DMP 840]
solubility at physiological pH [7]: limited solubility

COc1cccc2c1C(=O)c1c(O)c3c(c(O)c1C2=O)C[C@@](O)(C(=O)CO)C[C@@H]3O[C@H]1C[C@H](N)[C@H](O)[C@H](C)O1 [doxorubicin, Doxorubicin]
dissolution on suspending the preparation [8]: formed suspensions
label distribution to liver [9]: 3±0.6 % dose/g
label distribution to lung [9]: 4.6±1.6 % dose/g
label content in skeletal muscle ([9]; mean±standard deviation): 2±0.4 % dose/g
cytotoxic effects compared with doxorubicin-loaded carriers [10]: essentially the same cytotoxic effects
solubility at physiological pH [7]: limited solubility
